Data as given in the supplement of paper PMC11061612.

How the values were obtained:
[1] = tested on: TYK-nu (Ovarian Carcinoma); test: combination Emax (second highest fraction inhibited in the dose matrix, 72 h); higher = more inhibition; extreme values may be limits of the assay
Procedure, shortened: (§1)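 Bliss excess equals the observed combination effect minus the expected value EA + EB − EA·EB, where EA and EB are the effects of each agent alone. Combination Emax is the second-highest inhibition within the matrix. Inhibition was scaled from CellTiter-Glo 2.0 luminescence, with 0 set by vehicle wells and 1 by blank wells, after 72 hours of two-drug dosing of cells plated in 1536-well plates.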

[2] = tested on: JHH-6 (Hepatocellular Carcinoma); test: as above
Procedure, shortened: as §1

[3] = tested on: SNU-61 (Colorectal Carcinoma); test: as above
Procedure, shortened: as §1

HuO9 (Osteosarcoma) [4] = test: as above
Procedure, shortened: as §1

[5] = tested on: PA-TU-8902 (Pancreatic Carcinoma); test: as above
Procedure, shortened: as §1

[6] = tested on: HCC1143 (Breast Carcinoma); test: as above
Procedure, shortened: as §1

[7] = tested on: ETK-1 (Biliary Tract Carcinoma); test: as above
Procedure, shortened: as §1

[8] = tested on: 647-V (Bladder Carcinoma); test: as above
Procedure, shortened: as §1

[9] = tested on: RCC10RGB (Kidney Carcinoma); test: as above
Procedure, shortened: as §1

[10] = tested on: SKN-3 (Head and Neck Carcinoma); test: as above
Procedure, shortened: as §1

[11] = tested on: MES-SA (Other Solid Carcinomas); test: as above
Procedure, shortened: as §1

A172 (Glioblastoma) [12] = test: as above
Procedure, shortened: as §1

[13] = tested on: U-118-MG (Low Grade Glioma); test: as above
Procedure, shortened: as §1

[14] = tested on: GDM-1 (Acute Myeloid Leukemia); test: as above
Procedure, shortened: as §1

MCF7 (Breast Carcinoma) [15] = test: as above
Procedure, shortened: as §1

[16] = tested on: NCI-H1688 (Small Cell Lung Carcinoma); test: as above
Procedure, shortened: as §1

[17] = tested on: KG-1 (Acute Myeloid Leukemia); test: as above
Procedure, shortened: as §1

[18] = tested on: HCC-827 (Lung Adenocarcinoma); test: as above
Procedure, shortened: as §1

[19] = tested on: HOP-92 (Non-Small Cell Lung Carcinoma); test: as above
Procedure, shortened: as §1

[20] = tested on: EFM-192A (Breast Carcinoma); test: as above
Procedure, shortened: as §1

[21] = tested on: TYK-nu (Ovarian Carcinoma); test: Bliss excess, mean over the matrix (fraction); higher = more synergy
Procedure, shortened: as §1

[22] = tested on: JHH-6 (Hepatocellular Carcinoma); test: as above
Procedure, shortened: as §1

[23] = tested on: SNU-61 (Colorectal Carcinoma); test: as above
Procedure, shortened: as §1

HuO9 (Osteosarcoma) [24] = test: as above
Procedure, shortened: as §1

[25] = tested on: PA-TU-8902 (Pancreatic Carcinoma); test: as above
Procedure, shortened: as §1

[26] = tested on: HCC1143 (Breast Carcinoma); test: as above
Procedure, shortened: as §1

[27] = tested on: ETK-1 (Biliary Tract Carcinoma); test: as above
Procedure, shortened: as §1

[28] = tested on: 647-V (Bladder Carcinoma); test: as above
Procedure, shortened: as §1

[29] = tested on: RCC10RGB (Kidney Carcinoma); test: as above
Procedure, shortened: as §1

[30] = tested on: SKN-3 (Head and Neck Carcinoma); test: as above
Procedure, shortened: as §1

[31] = tested on: MES-SA (Other Solid Carcinomas); test: as above
Procedure, shortened: as §1

A172 (Glioblastoma) [32] = test: as above
Procedure, shortened: as §1

[33] = tested on: U-118-MG (Low Grade Glioma); test: as above
Procedure, shortened: as §1

[34] = tested on: GDM-1 (Acute Myeloid Leukemia); test: as above
Procedure, shortened: as §1

MCF7 (Breast Carcinoma) [35] = test: as above
Procedure, shortened: as §1

[36] = tested on: NCI-H1688 (Small Cell Lung Carcinoma); test: as above
Procedure, shortened: as §1

[37] = tested on: KG-1 (Acute Myeloid Leukemia); test: as above
Procedure, shortened: as §1

[38] = tested on: HCC-827 (Lung Adenocarcinoma); test: as above
Procedure, shortened: as §1

[39] = tested on: HOP-92 (Non-Small Cell Lung Carcinoma); test: as above
Procedure, shortened: as §1

[40] = tested on: EFM-192A (Breast Carcinoma); test: as above
Procedure, shortened: as §1

Compound	combination Emax [1]	combination Emax [2]	combination Emax [3]	combination Emax (HuO9 (Osteosarcoma) [4])	combination Emax [5]	combination Emax [6]	combination Emax [7]	combination Emax [8]	combination Emax [9]	combination Emax [10]	combination Emax [11]	combination Emax (A172 (Glioblastoma) [12])	combination Emax [13]	combination Emax [14]	combination Emax (MCF7 (Breast Carcinoma) [15])	combination Emax [16]	combination Emax [17]	combination Emax [18]	combination Emax [19]	combination Emax [20]	Bliss excess [21]	Bliss excess [22]	Bliss excess [23]	Bliss excess (HuO9 (Osteosarcoma) [24])	Bliss excess [25]	Bliss excess [26]	Bliss excess [27]	Bliss excess [28]	Bliss excess [29]	Bliss excess [30]	Bliss excess [31]	Bliss excess (A172 (Glioblastoma) [32])	Bliss excess [33]	Bliss excess [34]	Bliss excess (MCF7 (Breast Carcinoma) [35])	Bliss excess [36]	Bliss excess [37]	Bliss excess [38]	Bliss excess [39]	Bliss excess [40]
COc1nnc2ccc(N3CCC(c4ccc(OCCN5CCN(C)C(=O)[C@H]5C)cc4)CC3)nn12 [AZD5153] + CN(CC[C@H](CSC1=CC=CC=C1)NC2=C(C=C(C=C2)S(=O)(=O)NC(=O)C3=CC=C(C=C3)N4CCC(CC4)[C@H](C5=CC=CC=C5C6=CC=C(C=C6)Cl)O)S(=O)(=O)C(F)(F)F)CCO [AZD4320] (first compound max 1 µM, 7x7, partner max 1 µM)	0.628	0.521	0.392	0.938	0.269	0.454	0.48	0.513	0.548	0.452	0.393	0.568	0.417	1	0.699	0.509	1	0.483	0.936	0.308	0.0168	-0.0296	-0.005	0.028	0.0058	0.0577	0.0015	0.0463	-0.0004	-0.0093	0.0545	0.037	0.0051	0.0276	-0.0031	-0.0021	0.0754	0.0292	0.0252	0.0355
CC(=O)c1c(C)c2cnc(Nc3ccc(N4CCNCC4)cn3)nc2n(C2CCCC2)c1=O [Palbociclib] + CN(CC[C@H](CSC1=CC=CC=C1)NC2=C(C=C(C=C2)S(=O)(=O)NC(=O)C3=CC=C(C=C3)N4CCC(CC4)[C@H](C5=CC=CC=C5C6=CC=C(C=C6)Cl)O)S(=O)(=O)C(F)(F)F)CCO [AZD4320] (first compound max 10 µM, 7x7, partner max 1 µM)	0.37	0.381	0.136	0.841	0.323	0.332	0.292	0.211	0.667	0.277	0.445	0.647	0.466	1	0.45	0.657	0.984	0.288	0.891	0.165	-0.0257	-0.0496	-0.0753	0.0272	-0.085	-0.0178	-0.0826	-0.0393	-0.0344	-0.058	-0.0374	-0.115	-0.0302	-0.0087	-0.0486	-0.0438	0.0673	-0.0307	-0.0491	-0.041
C[C@@H](c1ccc2nccn2c1)n1nnc2ncc(-c3cnn(C)c3)nc21 [Savolitinib] + CN(CC[C@H](CSC1=CC=CC=C1)NC2=C(C=C(C=C2)S(=O)(=O)NC(=O)C3=CC=C(C=C3)N4CCC(CC4)[C@H](C5=CC=CC=C5C6=CC=C(C=C6)Cl)O)S(=O)(=O)C(F)(F)F)CCO [AZD4320] (first compound max 1 µM, 7x7, partner max 1 µM)	0.283	0.0904	0.183	0.745	0.26	0.268	0.181	0.15	0.33	0.187	0.152	0.112	0.402	1	0.162	0.538	0.873	0.236	0.888	0.258	-0.03	-0.0639	-0.0357	-0.0704	-0.0909	0.0021	-0.0216	-0.0378	-0.048	-0.0338	-0.0197	-0.0551	-0.0222	-0.0256	-0.0156	0.0359	-0.0251	-0.0001	-0.002	0.0065
